Read-outs that look alike come from different tables or passages of the source. Bridge positions count the residues as written; N and C are the ends. Peptide text beside a SMILES is read from it.
Target: T1, soluble human FcRn (Homo sapiens, UniProt P55899)
T1 construct: Soluble human FcRn was expressed and purified by Biogen-Idec as previously described (29)
Experiment: SPR (Biacore) affinity of peptides for immobilized soluble human FcRn
Format: binding
Procedure: SPR analyses were conducted using a Biacore 3000 or T100 instrument. Research-grade CM5 sensor chips and all coupling reagents for immobilization were purchased from Biacore. All proteins were cross-linked to the dextran surface of a CM5 sensor chip by standard amine coupling chemistry as recommended by Biacore. […] Binding experiments were performed at pH 6.0 or 7.4 using 50 mM phosphate, 100 mM sodium chloride and 0.01% surfactant P20. […] Bound albumin protein was then allowed to dissociate from the chip for 5 minutes with running buffer. Any remaining albumin was removed from the chip with a 60 second injection (2 cycles) of pH 8.0 Tris-HCl regeneration buffer (1 M Tris pH 8.0) at 25 μL/min flow rate. The binding responses recorded near the end of the association phase were plotted as a function of concentration. Equilibrium dissociation constants (KD), were derived from sensorgrams using the 1:1 binding model of BIAevaluation software 4.1.

[1] = Table 2, pH 7.4, data only 100 uM, therefore Kd may be higher, read-out: Kd, pH 7.4 Biacore
[2] = Table 2, pH 6, immobilized shFcRn, data fit steady state or 2 site, read-out: Kd, pH 6** Biacore
[3] = Table 1, pH 6, shFcRn immobilized on the sensor chip, steady state fit, read-out: Kd, pH 6** Biacore

SMILES | Kd Ratio 7.4/6.0 (Table 2) | Kd [1] [µM] | Kd [2] [µM] | Kd [3] [µM]
CSCC[C@H](NC(=O)[C@@H](NC(C)=O)C(C)C)C(=O)N[C@@H](Cc1c[nH]cn1)C(=O)N[C@H]1CSSC[C@@H](C(=O)N[C@@H](CC(=O)O)C(=O)N[C@@H](Cc2ccc(O)cc2)C(=O)NCC(N)=O)NC(=O)[C@H](CCCNC(=N)N)NC(=O)[C@H](Cc2ccccc2)NC(=O)[C@H](CCC(=O)O)NC(=O)[C@H](CCC(=O)O)NC(=O)[C@H](CC(=O)O)NC(=O)[C@H](Cc2c[nH]c3ccccc23)NC(=O)[C@H](Cc2ccccc2)NC1=O [SYN1381] (Ac-VMHCFWDEEFRCDYG-NH2; disulfide 4-12 (inferred)) | 82 |  |  | 
CSCC[C@H](NC(=O)[C@@H](NC(C)=O)C(C)C)C(=O)N[C@@H](Cc1c[nH]cn1)C(=O)N[C@H]1CSSC[C@@H](C(=O)N[C@@H](CC(=O)O)C(=O)N[C@@H](CCC(N)=O)C(=O)NCC(N)=O)NC(=O)[C@H](CCCNC(=N)N)NC(=O)[C@H](Cc2ccccc2)NC(=O)[C@H](C)NC(=O)[C@H](CCC(=O)O)NC(=O)[C@H](CC(=O)O)NC(=O)[C@H](Cc2c[nH]c3ccccc23)NC(=O)[C@H](Cc2ccccc2)NC1=O [SYN1382] (Ac-VMHCFWDEAFRCDQG-NH2; disulfide 4-12 (inferred)) | 25 |  |  | 
CSCC[C@@H]1NC(=O)[C@H](CCC(=O)O)NC(=O)[C@H](CCC(=O)O)NC(=O)[C@H](CC(=O)O)NC(=O)[C@H](Cc2c[nH]c3ccccc23)NC(=O)[C@H](Cc2c[nH]c3ccccc23)NC(=O)[C@@H](NC(=O)[C@H](CCCNC(=N)N)NC(=O)[C@H](CCSC)NC(=O)[C@@H](NC(C)=O)C(C)C)CSSC[C@@H](C(=O)N[C@@H](CCCNC(=N)N)C(=O)N[C@@H](C)C(=O)N[C@@H](Cc2ccccc2)C(N)=O)NC(=O)[C@H](CC(C)C)NC1=O [SYN1534] (Ac-VMRCWWDEEMLCRAF-NH2; disulfide 4-12 (inferred)) | 125 |  |  | 
CSCC[C@@H]1NC(=O)[C@H](CCC(=O)O)NC(=O)[C@H](CCC(=O)O)NC(=O)[C@H](CC(=O)O)NC(=O)[C@H](Cc2c[nH]c3ccccc23)NC(=O)[C@H](Cc2c[nH]c3ccccc23)NC(=O)[C@@H](NC(=O)[C@H](CCCCN)NC(=O)[C@H](CCSC)NC(=O)[C@@H](NC(C)=O)C(C)C)CSSC[C@@H](C(=O)N[C@@H](CCC(=O)O)C(=O)N[C@@H](C)C(=O)N[C@@H](Cc2ccccc2)C(N)=O)NC(=O)[C@H](CC(C)C)NC1=O [SYN1538] (Ac-VMKCWWDEEMLCEAF-NH2; disulfide 4-12 (inferred)) | 71 |  |  | 
CSCC[C@@H]1NC(=O)[C@H](CCC(=O)O)NC(=O)[C@H](CCC(=O)O)NC(=O)[C@H](CC(=O)O)NC(=O)[C@H](Cc2c[nH]c3ccccc23)NC(=O)[C@H](Cc2c[nH]c3ccccc23)NC(=O)[C@@H](NC(=O)[C@H](CCCCN)NC(=O)[C@H](CCSC)NC(=O)[C@@H](NC(C)=O)C(C)C)CSSC[C@@H](C(=O)N[C@@H](CCCNC(=N)N)C(=O)N[C@@H](C)C(=O)N[C@H](C(N)=O)C(C)C)NC(=O)[C@H](CC(C)C)NC1=O [SYN1540 A] (Ac-VMKCWWDEEMLCRAV-NH2; disulfide 4-12) | 80 |  |  | 
CC(=O)N[C@@H](CCCNC(=N)N)C(=O)N[C@@H](Cc1ccc(O)cc1)C(=O)N[C@@H](Cc1ccccc1)C(=O)N[C@H]1CSSC[C@@H](C(=O)N[C@@H](CCC(=O)O)C(=O)N[C@@H](CCC(=O)O)C(=O)N[C@H](C(N)=O)C(C)C)NC(=O)[C@H](Cc2c[nH]c3ccccc23)NC(=O)CNC(=O)[C@H](Cc2c[nH]cn2)NC(=O)[C@H](CCCCN)NC(=O)[C@H](C)NC(=O)[C@H](CCCCN)NC(=O)[C@H]([C@@H](C)O)NC1=O [SYN1547] (Ac-RYFCTKAKHGWCEEV-NH2; disulfide 4-12) |  |  |  | > 100

Further lines, results first:

Kd Ratio 7.4/6.0 (Table 2) | Kd [1] [µM] | Kd [2] [µM] | Kd [3] [µM] | SMILES
65 |  |  |  | CSCC[C@H](NC(=O)[C@@H](NC(C)=O)C(C)C)C(=O)N[C@@H](Cc1c[nH]cn1)C(=O)N[C@H]1CSSC[C@@H](C(=O)N[C@@H](CCC(=O)O)C(=O)N[C@@H](CCC(N)=O)C(=O)NCC(N)=O)NC(=O)[C@H](CCCCN)NC(=O)[C@H](Cc2ccccc2)NC(=O)[C@H](CCC(=O)O)NC(=O)[C@H](CCC(=O)O)NC(=O)[C@H](CC(=O)O)NC(=O)[C@H](Cc2c[nH]c3ccccc23)NC(=O)[C@H](Cc2ccccc2)NC1=O [SYN1258] (Ac-VMHCFWDEEFKCEQG-NH2; disulfide 4-12 (inferred))
132 | 12 |  |  | CSCC[C@H](NC(=O)[C@@H](NC(C)=O)C(C)C)C(=O)N[C@@H](Cc1c[nH]cn1)C(=O)N[C@H]1CSSC[C@@H](C(=O)N[C@@H](CC(=O)O)C(=O)N[C@@H](Cc2ccc(O)cc2)C(=O)NCC(N)=O)NC(=O)[C@H](CCCCN)NC(=O)[C@H](Cc2ccccc2)NC(=O)[C@H](CCC(=O)O)NC(=O)[C@H](CCC(=O)O)NC(=O)[C@H](CC(=O)O)NC(=O)[C@H](Cc2c[nH]c3ccccc23)NC(=O)[C@H](Cc2ccccc2)NC1=O [SYN1259] (Ac-VMHCFWDEEFKCDYG-NH2; disulfide 4-12 (inferred))
73 | 22 | 0.3 |  | CSCC[C@H](NC(=O)[C@@H](NC(C)=O)C(C)C)C(=O)N[C@@H](Cc1c[nH]cn1)C(=O)N[C@H]1CSSC[C@@H](C(=O)N[C@@H](CC(=O)O)C(=O)N[C@@H](CCC(N)=O)C(=O)N[C@H](C(N)=O)C(C)C)NC(=O)[C@H](CCCCN)NC(=O)[C@H](Cc2ccccc2)NC(=O)[C@H](CCC(=O)O)NC(=O)[C@H](CCC(=O)O)NC(=O)[C@H](CC(=O)O)NC(=O)[C@H](Cc2c[nH]c3ccccc23)NC(=O)[C@H](Cc2ccccc2)NC1=O [SYN1260] (Ac-VMHCFWDEEFKCDQV-NH2; disulfide 4-12 (inferred))
112 | 17.3 |  |  | CSCC[C@@H]1NC(=O)[C@H](CCC(=O)O)NC(=O)[C@H](CCC(=O)O)NC(=O)[C@H](CC(=O)O)NC(=O)[C@H](Cc2c[nH]c3ccccc23)NC(=O)[C@H](Cc2c[nH]c3ccccc23)NC(=O)[C@@H](NC(=O)[C@H](CCCCN)NC(=O)[C@H](CCSC)NC(=O)[C@@H](NC(C)=O)C(C)C)CSSC[C@@H](C(=O)N[C@@H](CCCNC(=N)N)C(=O)N[C@@H](C)C(=O)N[C@@H](Cc2ccccc2)C(N)=O)NC(=O)[C@H](CC(C)C)NC1=O [SYN1532] (Ac-VMKCWWDEEMLCRAF-NH2; disulfide 4-12 (inferred))
106 |  |  |  | CSCC[C@@H]1NC(=O)[C@H](CCC(=O)O)NC(=O)[C@H](CCC(=O)O)NC(=O)[C@H](CC(=O)O)NC(=O)[C@H](Cc2c[nH]c3ccccc23)NC(=O)[C@H](Cc2c[nH]c3ccccc23)NC(=O)[C@@H](NC(=O)[C@H](Cc2c[nH]cn2)NC(=O)[C@H](CCSC)NC(=O)[C@@H](NC(C)=O)C(C)C)CSSC[C@@H](C(=O)N[C@@H](CCCNC(=N)N)C(=O)N[C@@H](C)C(=O)N[C@@H](Cc2ccccc2)C(N)=O)NC(=O)[C@H](CC(C)C)NC1=O [SYN1533] (Ac-VMHCWWDEEMLCRAF-NH2; disulfide 4-12 (inferred))
35 |  |  |  | CSCC[C@@H]1NC(=O)[C@H](CCC(=O)O)NC(=O)[C@H](CCC(=O)O)NC(=O)[C@H](CC(=O)O)NC(=O)[C@H](Cc2c[nH]c3ccccc23)NC(=O)[C@H](Cc2ccccc2)NC(=O)[C@@H](NC(=O)[C@H](CCCCN)NC(=O)[C@H](CCSC)NC(=O)[C@@H](NC(C)=O)C(C)C)CSSC[C@@H](C(=O)N[C@@H](CCCNC(=N)N)C(=O)N[C@@H](C)C(=O)N[C@@H](Cc2ccccc2)C(N)=O)NC(=O)[C@H](CC(C)C)NC1=O [SYN1535] (Ac-VMKCFWDEEMLCRAF-NH2; disulfide 4-12 (inferred))
61 | 1.1 | 0.031 |  | CSCC[C@H](NC(=O)[C@@H](NC(C)=O)C(C)C)C(=O)N[C@@H](CCCCN)C(=O)N[C@H]1CSSC[C@@H](C(=O)N[C@@H](CCCNC(=N)N)C(=O)N[C@@H](C)C(=O)N[C@@H](Cc2ccccc2)C(N)=O)NC(=O)[C@H](CC(C)C)NC(=O)[C@H](Cc2ccccc2)NC(=O)[C@H](CCC(=O)O)NC(=O)[C@H](CCC(=O)O)NC(=O)[C@H](CC(=O)O)NC(=O)[C@H](Cc2c[nH]c3ccccc23)NC(=O)[C@H](Cc2c[nH]c3ccccc23)NC1=O [SYN1536] (Ac-VMKCWWDEEFLCRAF-NH2; disulfide 4-12 (inferred))
83 | 8.6 |  |  | CSCC[C@@H]1NC(=O)[C@H](CCC(=O)O)NC(=O)[C@H](CCC(=O)O)NC(=O)[C@H](CC(=O)O)NC(=O)[C@H](Cc2c[nH]c3ccccc23)NC(=O)[C@H](Cc2c[nH]c3ccccc23)NC(=O)[C@@H](NC(=O)[C@H](CCCCN)NC(=O)[C@H](CCSC)NC(=O)[C@@H](NC(C)=O)C(C)C)CSSC[C@@H](C(=O)N[C@@H](CCCNC(=N)N)C(=O)N[C@@H](Cc2ccc(O)cc2)C(=O)N[C@@H](Cc2ccccc2)C(N)=O)NC(=O)[C@H](CC(C)C)NC1=O [SYN1539] (Ac-VMKCWWDEEMLCRYF-NH2; disulfide 4-12 (inferred))
 |  |  | 9.3 | CC(=O)N[C@@H](CCCNC(=N)N)C(=O)N[C@@H](Cc1ccc(O)cc1)C(=O)N[C@@H](Cc1ccccc1)C(=O)N[C@H]1CSSC[C@@H](C(=O)N[C@@H](CCC(=O)O)C(=O)N[C@@H](CCC(=O)O)C(=O)N[C@H](C(N)=O)C(C)C)NC(=O)[C@H](Cc2c[nH]c3ccccc23)NC(=O)CNC(=O)[C@H](Cc2c[nH]cn2)NC(=O)[C@H](CCCCN)NC(=O)[C@H](Cc2c[nH]c3ccccc23)NC(=O)[C@H](CCCCN)NC(=O)[C@H](C)NC1=O [SYN1545] (Ac-RYFCAKWKHGWCEEV-NH2; disulfide 4-12 (inferred))
